In patent US5340800A, “Peptide medicaments for the treatment of disease” (priority 1992, dated 1994):
No end group written: not given here.

Test system: polymorphonuclear leukocyte migration
Test: Chemotaxis of polymorphonuclear leukocytes (trans-well, zymosan-activated human serum)
Format: cell-based
Settings: for % Inhibition of Migration (neutrophil chemotaxis): 0.5% zymosan-activated human serum
Protocol: The materials and methods for ascertaining the chemotactic inhibitory properties of peptides are generally known in the art, and the preferred procedure is described by Capsoni, et al., 1989, J. of Immunol. Meth., 120:125. Generally, chemotaxis is determined by positioning the leukocytes and a chemotactic substance on opposite sides of a membrane in appropriate culture media. The preferred apparatus for doing a chemotaxis assay is produced by Costar Corporation, Cambridge, Mass., and is termed the trans-well cell culture apparatus. […] If a substance is being tested for inhibitory activity this can be achieved by combining it with the leukocytes or the chemotactic substance.
The procedure of Capsoni, et al., above, was followed with the following modifications. Leukocytes may be isolated and labelled with ^111 Indium as described for the adhesion assay, above. The cells are resuspended after labelling in an appropriate cell culture medium at about 5×10^6 cells/ml. Next, a desired amount of the cell suspension is mixed with a predetermined amount of the peptide(s) to be tested for inhibitory activity, and the mixture added to an appropriate filter device. Three μm-pore membranes are situated in the wells of a 24 trans-well tissue culture plate. The cell/inhibitory peptide mixture is incubated for a short time at 37° C. to acclimate the cells to the membrane surface, and to provide sufficient time for them to settle onto the membrane surface. Next, inserts are set in wells containing cell culture media. The media contains zymosan-activated human serum at about 0.5%. Zymosan activation generates complement-derived chemotactic factors which attract the leukocytes through the pores of the membrane. This media was also prewarmed for an appropriate time prior to addition to the cell culture wells. After a 30 minute incubation period at 37° C., the number of leukocytes that have migrated through the membrane filter, in the presence or absence of CD18 peptides, is readily determined by counting the amount of ^111 Indium present in the media. This may be facilitated by adding an appropriate detergent at an appropriate concentration to the media in the wells prior to removing an aliquot for counting. In this way, the inhibitory activities of the peptide being tested could be determined.
Many of the materials and methods used to test the inhibitory activity of the CD18 peptides on the chemotactic response of the polymorphonuclear leukocytes are similar or identical to those used to perform the adhesion assays described in Example 1. Polymorphonuclear leukocytes were isolated and labelled with ^111 Indium as described before, and the cells were suspended in RPMI 1640 culture medium at a concentration of 5×10^6 /ml. Next, 75 μl of the cell suspension and 25 μl of media containing a desired concentration of a CD18 peptide were added to trans-well inserts, and the mixture was incubated at 37° C. for 10 minutes.
To the bottom wells of the 24-well plate 0.6 ml of media containing 0.5% zymosan-activated human serum was added. This solution was also warmed to 37° C. for 10 minutes prior to use.
Next, the assay was conducted by incubating the trans-well inserts containing the cell suspension with the desired CD18 peptide in the 24-well plates at 37° C. for 30 minutes. Subsequently, the inserts were removed, and 60 μl of a 10% sodium dodecyl sulphate solution was added to the wells of the 24-well plate. The plates were incubated with gentle shaking at room temperature for 15 minutes, and 110 μl aliquots were removed and the amount of ^111 Indium determined using a gamma-counter.

## IGWRNVTRLLVFATDDGFHFAGDGKLGAI [Peptide 4-29, NH2 --Ile--Gly--Trp--Arg--Asn--Val--Thr--Arg--Leu--Leu--Val--Phe--Ala--Thr--Asp--Asp--Gly--Phe--His--Phe--Ala--Gly--Asp--Gly--Lys--Leu--Gly--Ala--Ile--COOH]
6 donors, 10^-4 -10^-7
  concentration of peak activity in chemotaxis inhibition: 10^-5 M
10^-4 -10^-5 M
  inhibition of chemotaxis migration (in words): marked inhibition
10^-4 M, donor 140
  % Inhibition of Migration (neutrophil chemotaxis): 83%
10^-4 M, donor 195
  percent inhibition (-) or enhancement of polymorphonuclear leukocyte migration: -93%
  % Inhibition of Migration (neutrophil chemotaxis): 76%
10^-4 M, donor 279
  % Inhibition of Migration (neutrophil chemotaxis): 74%
10^-4 M, donor 363
  % Inhibition of Migration (neutrophil chemotaxis): 76%
10^-4 M, donor 499
  percent inhibition (-) or enhancement of polymorphonuclear leukocyte migration: -87%
10^-4 M, donor 591
  percent inhibition (-) or enhancement of polymorphonuclear leukocyte migration: -74%
10^-4 M, donor 593
  percent inhibition (-) or enhancement of polymorphonuclear leukocyte migration: -88%
10^-5 M, donor 140
  % Inhibition of Migration (neutrophil chemotaxis): 69%
10^-5 M, donor 169
  % Inhibition of Migration (neutrophil chemotaxis): 75%
10^-5 M, donor 195
  percent inhibition (-) or enhancement of polymorphonuclear leukocyte migration: -93%
  % Inhibition of Migration (neutrophil chemotaxis): 87%
10^-5 M, donor 279
  % Inhibition of Migration (neutrophil chemotaxis): 49%
10^-5 M, donor 359
  % Inhibition of Migration (neutrophil chemotaxis): 74%
10^-5 M, donor 363
  % Inhibition of Migration (neutrophil chemotaxis): 79%
10^-5 M, donor 499
  percent inhibition (-) or enhancement of polymorphonuclear leukocyte migration: -79%
10^-5 M, donor 591
  percent inhibition (-) or enhancement of polymorphonuclear leukocyte migration: -88%
10^-5 M, donor 593
  percent inhibition (-) or enhancement of polymorphonuclear leukocyte migration: -88%
10^-6 M, donor 140
  % Inhibition of Migration (neutrophil chemotaxis): 2%
10^-6 M, donor 195
  percent inhibition (-) or enhancement of polymorphonuclear leukocyte migration: 11%
  % Inhibition of Migration (neutrophil chemotaxis): 34%
10^-6 M, donor 279
  % Inhibition of Migration (neutrophil chemotaxis): 17%
10^-6 M, donor 363
  % Inhibition of Migration (neutrophil chemotaxis): 34%
10^-6 M, donor 499
  percent inhibition (-) or enhancement of polymorphonuclear leukocyte migration: 0%
10^-6 M, donor 591
  percent inhibition (-) or enhancement of polymorphonuclear leukocyte migration: 0%
10^-6 M, donor 593
  percent inhibition (-) or enhancement of polymorphonuclear leukocyte migration: 4%
10^-7 M, donor 140
  % Inhibition of Migration (neutrophil chemotaxis): 0%
10^-7 M, donor 279
  % Inhibition of Migration (neutrophil chemotaxis): 0%
PMNs from 6 donors
  inhibitory activity on chemotaxis (in words): significant activity being observed for all donors
